According to publication PMC5556109, “A combinatorial approach for the discovery of cytochrome P450 2D6 inhibitors from nature” (Scientific Reports, 2017):
Where two headings read alike, the source gives them in different places.

Legend:
CYP2D6 [1] = assay: CYP2D6 inhibition of virtual hits already reported in the literature
Description: the hits according to non-available CYP2D6 inhibition data, plant origin and availability. The

CYP2D6 [2] = settings: Supplementary Table S2, supplementary reference list, cited from earlier work; for IC50: read-out: Inhibitory potency IC50
CYP2D6 [3] = biological target: T1, CYP2D6 (Homo sapiens, UniProt P10635); assay: P450-Glo CYP2D6 inhibition assay (bioluminescence-based; pre-screen at 100 µM and IC50 determination); settings: for classification of CYP2D6 inhibition (actives / weak actives / inactives): ranked by IC50, inactives from pre-screen at 100 µM
T1 sequence (P10635 whole entry): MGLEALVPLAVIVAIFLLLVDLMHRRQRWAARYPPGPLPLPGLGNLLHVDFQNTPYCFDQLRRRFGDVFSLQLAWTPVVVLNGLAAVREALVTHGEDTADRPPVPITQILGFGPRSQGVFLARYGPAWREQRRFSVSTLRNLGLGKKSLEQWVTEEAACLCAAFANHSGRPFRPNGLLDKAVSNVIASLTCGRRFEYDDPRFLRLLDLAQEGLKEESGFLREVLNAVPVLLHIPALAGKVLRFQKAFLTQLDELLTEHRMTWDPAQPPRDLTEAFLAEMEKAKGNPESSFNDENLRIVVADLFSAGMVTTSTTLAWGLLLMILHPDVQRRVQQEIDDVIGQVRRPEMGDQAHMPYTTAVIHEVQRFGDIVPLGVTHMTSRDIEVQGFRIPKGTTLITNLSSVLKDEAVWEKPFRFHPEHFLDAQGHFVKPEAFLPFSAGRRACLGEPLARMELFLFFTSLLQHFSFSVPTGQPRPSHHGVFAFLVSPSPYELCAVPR
Description: (§1) Their CYP2D6 inhibitory potential was determined at a concentration of 100 µM in a final reaction volume of 50 µl. […] All compounds were dissolved in DMSO and the concentration thereof in the final reaction volume was 1%, according to the limitations indicated in the manufacturer’s protocol. […] To take into account the background luminescence, which may derive from a non-enzymatic conversion of ME-luciferin-EGE to luciferin, we included a ‘minus P450’ control that contained no CYP2D6 enzyme. In order to quantify CYP2D6 activity, we subtracted background values prior to calculating the percentage of total luminescence (% TL) obtained from the solvent control (set to 100%). Low % TL indicates low CYP2D6 activity.
(§2) In the three minus P450 control wells, 12.25 µl of the 4× reaction mixture was added. […] The plate was incubated for 10 minutes. The CYP2D6 enzyme reaction was initiated by the addition of 25 µl of 2× NADPH regeneration system (2.6 mM NADP^+, 6.6 mM glucose-6-phosphate, 6.6 mM MgCl2 and 0.8 U/ml glucose-6-phosphate dehydrogenase buffered in 0.1 mM sodium citrate at pH 5.5; Promega). After 45 minutes incubation, the enzyme reaction was stopped by the addition of 50 µl of the luciferin detection reagent, which contained also the esterase for the generation of the luminescence signal. The plate was incubated in the dark for 20 minutes in order to stabilize the signal measured by a Tecan infinite F200 PRO plate reader. […] The maximum allowed DMSO concentration in the final reaction mix was 1% according to the manufacturer’s protocol. The experiment was performed at room temperature and under prevention of excessive UV-light at minimum on two independent days (n = 2).
(§3) Concentration-dependent CYP2D6 inhibition assays were performed by preparing a 5-step dilution series of the 400 µM compound solutions. […] After this dilution step, 12.5 µl of each dilution was transferred to the assay plate. The assay was performed as described above. The DMSO concentration was kept constant for all concentrations with a maximum of 1%. The experiments were performed on three independent experimental days (n = 3).
(§4) Raw data obtained from Tecan infinite F200 PRO plate reader was processed by calculating total luminescence (% of untreated control) by applying the formula: raw data − (background luminescence) * 100/mean of negative control.

CYP2D6 [4] = biological target: T1, CYP2D6; assay: in vitro; settings: recombinant enzyme, pH 7.4
Description: as §1, §2, §3, §4

[5] = system: P450-Glo detection reaction (unspecific esterase and modified firefly-luciferase); assay: P450-Glo detection reaction control (luciferin-EGE, esterase, luciferase, test compound, no CYP2D6); settings: for P450-Glo Detection Reaction MEAN Diff. (inhibition of the detection reaction) / P450-Glo Detection Reaction MEAN (total luminescence): 50 µM test compound; for P450-Glo Detection Reaction MEAN Diff. (inhibition of the detection reaction): difference to DMSO 1% control; for P450-Glo Detection Reaction MEAN (total luminescence): no CYP2D6, DMSO control = 100; for p < 0.05 (significant inhibition of the P450-Glo detection reaction): 50 µM, one-way ANOVA, Dunnett's test vs DMSO control
Description: (§5) This detection-reagent consists of i) a detergent that stops the CYP2D6 enzyme reaction, ii) an unspecific esterase that continuously releases luciferin and iii) a modified firefly-luciferase, thus a stable luminogenic signal is generated, which can be quantified by a luminometer (Fig. 1). The detection reaction is incorporated in the P450-Glo CYP2D6 inhibition assay. However, we implemented additional controls for unspecific interactions of the test compounds with the detection reaction. For this purpose, the previously established luminescence quenching control reaction reported by Modarai et al.[9] was adapted to our requirements with modifications for the use of larger sample volumes. In addition, Modarai et al. converted ME-luciferin-EGE to luciferin in the absence of a test compound and then evaluated the inhibition of the luciferase reaction.We conducted the control step by using pure luciferin-EGE, esterase, luciferase and a test compound in the absence of CYP2D6 (Supplementary Table S4).
(§6) The quantification of the P450-Glo detection reaction was performed by subtracting the background values prior to calculating the percentage of total luminescence (% TL) based on the total luminescence obtained from the solvent control (set to 100%).
(§7) We then added 12.5 µl 4× reaction mixture (5 µl 1.5 mM luciferin-EGE stock solution, 500 µl 1 M KPO4 buffer and 745 µl luciferase free water) to the wells. Finally, 25 µl of the 2× NADPH regeneration system was added. In order to initiate the detection reaction, 50 µl of the reconstituted luciferin detection reagent containing the esterase was added to the samples, positive and solvent control wells. This step was followed by 20 minutes incubation in the dark for signal stabilization. In the wells reserved for background luminescence, luciferase-free water was added. Measurements were performed on a Tecan infinite F200 PRO plate reader on two independent days (n = 2) at minimum.
as §4
(§8) A one-way ANOVA followed by Dunnett’s multiple comparisons test was performed. […] A p-value of < 0.05 was used to indicate significance.

CYP2D6 [6] = biological target: T1, CYP2D6; settings: recombinant enzyme
Description: as §1, §2, §3, §4

[7] = system: P450-Glo detection reaction (unspecific esterase and modified firefly-luciferase)
Description: as §5, §6, §7, §4, §8

firefly-luciferase = settings: cited from earlier work
CYP2D6 [8] = system: CYP2D6; design: method as in earlier work; settings: ME-luciferin-EGE as CYP2D6 substrate; cited from earlier work
[9] = authors' classification of the literature value, Supplementary Table S2

COC(=O)C1=CO[C@@H](C)[C@H]2CN3CCc4c([nH]c5ccccc45)[C@@H]3C[C@H]12 [Ajmalicine]
Classification of literature CYP2D6 inhibition (CYP2D6 [1]; [9]): active | IC50 (CYP2D6 [2]): 0.0023 µM

C=C[C@H]1CN2CC[C@H]1C[C@H]2[C@H](O)c1ccnc2ccccc12 [Cinchonidine]
Classification of literature CYP2D6 inhibition (CYP2D6 [1]; [9]): active | IC50 (CYP2D6 [2]): 10 µM

COC(=O)C1=CO[C@@H](C)[C@@H]2CN3CC[C@@]4(C(=O)Nc5ccccc54)[C@@H]3C[C@H]12 [Compound 2, Isopteropodine]
IC50 (CYP2D6 [3]): 89.1 µM | total luminescence in CYP2D6 inhibition pre-screen (CYP2D6 [3]; 100 µM test compound, solvent control = 100%, low % TL = low CYP2D6 activity): 43.22 % TL | classification of CYP2D6 inhibition (actives / weak actives / inactives) (CYP2D6 [3]): weak actives | inhibition at 100 µM (CYP2D6 [4]): 56.8% | P450-Glo Detection Reaction MEAN Diff. (inhibition of the detection reaction) [5]: 7.57% | P450-Glo Detection Reaction MEAN (total luminescence) [5]: 92.43 % TL | p < 0.05 (significant inhibition of the P450-Glo detection reaction) [5]: Yes

COc1ccc(Cc2nccc3cc(OC)c(OC)cc23)cc1OC [Compound 6, Papaverine]
IC50 (CYP2D6 [3]): 7.02 µM | classification of CYP2D6 inhibition (actives / weak actives / inactives) (CYP2D6 [6]): actives (key: actives: those compounds were classified as active, which exhibited CYP2D6 IC50 values up to 10 µM; inactives showed less than 50 % total luminescence at a concentration of 100 µM) | P450-Glo Detection Reaction MEAN (total luminescence) [7]: 82.48 % TL

COc1cc2c(cc1O)-c1c(O)c(OC)cc3c1[C@H](C2)N(C)CC3 [Compound 18, Bracteoline]
IC50 (CYP2D6 [3]): 2.11 µM | classification of CYP2D6 inhibition (actives / weak actives / inactives) (CYP2D6 [3]): actives (those compounds were classified as active, which exhibited CYP2D6 IC50 values up to 10 µM) | P450-Glo Detection Reaction MEAN Diff. (inhibition of the detection reaction) [5]: 12.30% | P450-Glo Detection Reaction MEAN (total luminescence) [5]: 87.70 % TL | p < 0.05 (significant inhibition of the P450-Glo detection reaction) [5]: Yes

COC1=C[C@]23CCN(C)[C@H](Cc4ccc(OC)c(O)c42)C3=CC1=O [Compound 20, (+)-Salutaridine]
IC50 (CYP2D6 [3]): 24 µM | classification of CYP2D6 inhibition (actives / weak actives / inactives) (CYP2D6 [3]): weak actives | P450-Glo Detection Reaction MEAN Diff. (inhibition of the detection reaction) [5]: 2.94% | P450-Glo Detection Reaction MEAN (total luminescence) [5]: 97.06 % TL | p < 0.05 (significant inhibition of the P450-Glo detection reaction) [5]: No

CN1Cc2c(ccc3c2OCO3)[C@@H]2[C@H]1c1cc3c(cc1C[C@@H]2O)OCO3 [Compound 21, (+)-Chelidonine]
IC50 (CYP2D6 [3]): 0.0225 µM | classification of CYP2D6 inhibition (actives / weak actives / inactives) (CYP2D6 [6]): actives (key: actives: those compounds were classified as active, which exhibited CYP2D6 IC50 values up to 10 µM; inactives showed less than 50 % total luminescence at a concentration of 100 µM) | total luminescence in CYP2D6 inhibition pre-screen (CYP2D6 [6]; 100 µM): 0.45 % TL | inhibition at 100 µM (CYP2D6 [4]): 99.5% | P450-Glo Detection Reaction MEAN (total luminescence) [7]: 98.77 % TL

CC[C@]12C=CCN3CC[C@]4(C(=C(C(=O)OC)C1)Nc1ccccc14)[C@@H]32 [Compound 22, Tabersonine]
IC50 (CYP2D6 [3]; IC50, P450-Glo CYP2D6 Inhibition Assay, recombinant human CYP2D6, 6 concentrations (compound 18: 4), n = 3): 0.419 µM | classification of CYP2D6 inhibition (actives / weak actives / inactives) (CYP2D6 [3]): actives (those compounds were classified as active, which exhibited CYP2D6 IC50 values up to 10 µM) | P450-Glo Detection Reaction MEAN (total luminescence) [5]: 104.20 % TL | p < 0.05 (significant inhibition of the P450-Glo detection reaction) [5]: Yes

Oc1ccc(/C=C/c2cc(O)cc(O)c2)cc1 [Compound 24, Resveratrol, reference compound]
classification of CYP2D6 inhibition (actives / weak actives / inactives) (CYP2D6 [3]): weak actives | inhibition of firefly-luciferase (firefly-luciferase): lower micromolar range

COc1cc2c(cc1OC)[C@H]1[C@@H](C)c3ccc(OC)c(OC)c3CN1CC2 [Corydaline]
Classification of literature CYP2D6 inhibition (CYP2D6 [1]; [9]): weak | Classification of literature CYP2D6 inhibition (CYP2D6 [1]; w/o preincubation, authors' classification of the literature value, Supplementary Table S2): inactive | IC50 (CYP2D6 [2]; w/ preincubation): 64.5 ± 9.8 µM | IC50 (CYP2D6 [2]; w/o preincubation): 116 ± 7.6 µM

COc1cc2c(cc1O)CCN1Cc3c(ccc(OC)c3OC)C[C@H]21 [Corypalmine]
Classification of literature CYP2D6 inhibition (CYP2D6 [1]; [9]): active | IC50 (CYP2D6 [2]): 1 to 10 µM

COc1cc2c(cc1OC)C(=O)Cc1ccc3c(c1CN(C)CC2)OCO3 [Cryptopine]
Classification of literature CYP2D6 inhibition (CYP2D6 [1]; [9]): unclear | Inhibitory potency (CYP2D6 [2]): stated as inhibitor

COc1ccc(CC2c3cc(OC)c(OC)cc3CCN2C)cc1OC (centres unmarked) [Laudanosine]
Classification of literature CYP2D6 inhibition (CYP2D6 [1]; [9]): unclear | Inhibitory potency (CYP2D6 [2]): stated as inhibitor

COc1ccc2nc(C3=NC(C(=O)OCCO)CS3)sc2c1 (centres unmarked) [ME-luciferin-EGE, methoxy-luciferin-ethylene glycol ester]
turnover number (kcat) (CYP2D6 [8]): 0.118 s⁻¹

COc1ccc2c(c1OC)C(=O)O[C@@H]2[C@H]1c2c(cc3c(c2OC)OCO3)CCN1C [Noscapine]
Classification of literature CYP2D6 inhibition (CYP2D6 [1]; [9]): inactive | Inhibitory potency (IC50/Ki not specified) (CYP2D6 [2]): > 100 µM

COc1cc2c(cc1OC)-c1cc3ccc(OC)c(OC)c3c[n+]1CC2 [Palmatine chloride]
Classification of literature CYP2D6 inhibition (CYP2D6 [1]): weak | Inhibitory potency (IC50/Ki not specified) (CYP2D6 [2]): 92.6 µM

CN1CCc2cc3c(cc2C(=O)Cc2ccc4c(c2C1)OCO4)OCO3 [Protopine]
Classification of literature CYP2D6 inhibition (CYP2D6 [1]): active | Ki (CYP2D6 [2]; read-out: Inhibitory potency Ki): 0.078 µM

COC1=C[C@@H]2[C@@H]3Cc4ccc(OC)c(O)c4[C@]2(CCN3C)CC1=O [Sinomenine]
Classification of literature CYP2D6 inhibition (CYP2D6 [1]; [9]): inactive | Inhibitory potency (CYP2D6 [2]; at 50 µM): no inhibition

COc1cc2c(cc1OC)[C@@H]1Cc3ccc(OC)c(OC)c3CN1CC2 [Tetrahydropalmatine]
Classification of literature CYP2D6 inhibition (CYP2D6 [1]; [9]): active | IC50 (CYP2D6 [2]): 3.04 ± 0.26 µM

CCC12C=CCN3CC[C@@]4(c5ccc(OC)cc5N(C)[C@H]4[C@@](O)(C(=O)OC)[C@@H]1OC(C)=O)[C@@H]32 (some centres unmarked) [Vindoline]
Classification of literature CYP2D6 inhibition (CYP2D6 [1]; [9]): active | IC50 (CYP2D6 [2]): 15.9 µM
